Earlier results on 1 molecule are cited in US20240139208A1, “COMBINED PHARMACEUTICAL COMPOSITION CONTAINING CDK4/6 INHIBITOR AND USE THEREOF” (CHIA TAI TIANQING PHARMACEUTICAL GROUP CO., LTD., priority 2021, published 2024).

The structures appear in SMILES notation.

On to `C[C@]12CC[C@@H]3c4ccc(O)cc4C[C@@H](CCCCCCCCC[S+]([O-])CCCC(F)(F)C(F)(F)F)[C@H]3[C@@H]1CC[C@@H]2O` (stereo partly drawn) [Fulvestrant, 7-α-[9-(4,4,5,5,5-pentafluoropentylsulfinyl)nonyl]estra-1,3,5-(10)-triene-3,17-β-diol], for which the solubility in water entry is reported as “insoluble”.
